Test results published in ChEMBL document CHEMBL1143500, “Novel heterocyclic thyromimetics” (Bioorg Med Chem Lett, 2005).

Columns and labels:
Thyroid hormone receptor = target: T1, Thyroid hormone receptor (Homo sapiens, UniProt P10827+P10828); assay: (§1) Agonist activity towards thyroid hormone receptor expressed in human HepG2 cells; assay type: functional, cell-based
T1 sequence (P10827 whole entry): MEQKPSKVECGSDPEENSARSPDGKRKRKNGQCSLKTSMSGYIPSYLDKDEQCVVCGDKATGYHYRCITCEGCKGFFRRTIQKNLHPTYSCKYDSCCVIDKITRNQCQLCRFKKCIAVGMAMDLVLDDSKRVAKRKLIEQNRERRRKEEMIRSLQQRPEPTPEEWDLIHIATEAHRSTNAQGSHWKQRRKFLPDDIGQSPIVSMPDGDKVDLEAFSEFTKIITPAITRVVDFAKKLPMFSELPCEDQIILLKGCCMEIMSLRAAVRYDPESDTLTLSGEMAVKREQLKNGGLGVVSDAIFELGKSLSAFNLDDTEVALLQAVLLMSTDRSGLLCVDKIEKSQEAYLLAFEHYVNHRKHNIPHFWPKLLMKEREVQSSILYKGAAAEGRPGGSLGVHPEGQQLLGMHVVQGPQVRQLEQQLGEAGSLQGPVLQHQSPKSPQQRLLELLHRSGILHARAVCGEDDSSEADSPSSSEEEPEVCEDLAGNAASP
T1 sequence (P10828 whole entry): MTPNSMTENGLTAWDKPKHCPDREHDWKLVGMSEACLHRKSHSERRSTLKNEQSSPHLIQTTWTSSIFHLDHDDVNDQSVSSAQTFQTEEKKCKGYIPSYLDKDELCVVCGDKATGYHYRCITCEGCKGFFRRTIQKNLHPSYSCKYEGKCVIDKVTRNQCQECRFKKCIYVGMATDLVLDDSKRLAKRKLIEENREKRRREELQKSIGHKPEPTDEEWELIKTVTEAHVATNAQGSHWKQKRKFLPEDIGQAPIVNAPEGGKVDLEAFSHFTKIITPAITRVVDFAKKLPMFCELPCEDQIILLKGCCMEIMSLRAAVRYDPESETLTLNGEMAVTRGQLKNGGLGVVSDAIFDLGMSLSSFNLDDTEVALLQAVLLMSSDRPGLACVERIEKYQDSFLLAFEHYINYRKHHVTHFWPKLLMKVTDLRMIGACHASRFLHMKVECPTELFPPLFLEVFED

[1] = target: T2, Thyroid hormone receptor (Homo sapiens) (UniProt P10827+P10828); assay: Selectivity for THRalpha and THRbeta, ratio of EC50; assay type: protein-complex assay
[2] = target: T2, Thyroid hormone receptor (Homo sapiens); assay: as §1; assay type: functional, cell-based

Row | SMILES | EC50 (Thyroid hormone receptor) | Selectivity [1] | Concentration [2]
1 | CCOC(=O)C(=O)Nc1cc(C)c(Oc2ccc3[nH]ccc3c2)c(C)c1 | 72 nM |  | 
2 | CCOC(=O)C(=O)Nc1cc(C)c(Oc2ccc3[nH]cc(C(C)C)c3c2)c(C)c1 | 4 nM | 10 | 
3 | CCCCCc1n[nH]c2ccc(Oc3c(C)cc(NC(=O)C(=O)OCC)cc3C)cc12 | 8 nM |  | 
4 | CCOC(=O)C(=O)Nc1cc(C)c(Oc2ccc3[nH]cc(C)c3c2)c(C)c1 | 15 nM |  | 
5 | CCOC(=O)C(=O)Nc1cc(Br)c(Oc2ccc3[nH]cc(C(C)C)c3c2)c(Br)c1 | 1.2 nM |  | 
6 | CC(C)c1c[nH]c2ccc(Oc3c(C(F)(F)F)cc(CC(=O)O)cc3C(F)(F)F)cc12 | 0.5 nM |  | 
7 | C=Cc1cc(NC(=O)C(=O)OCC)cc(C=C)c1Oc1ccc2[nH]cc(C(C)C)c2c1 | 7.8 nM |  | 
8 | CCOC(=O)C(=O)Nc1cc(Cl)c(Oc2ccc3[nH]ccc3c2)c(Cl)c1 | 15 nM |  | 
9 | COC(=O)C(=O)Nc1cc(Cl)c(Oc2ccc3[nH]cc(C(C)C)c3c2)c(Cl)c1 | 4 nM |  | 
10 | CCOC(=O)C(=O)Nc1cc(C(F)(F)F)c(Oc2ccc3[nH]cc(C(C)C)c3c2)c(C(F)(F)F)c1 | 3 nM | 10 | 
11 | CCOC(=O)C(=O)Nc1cc(C(F)(F)F)c(Oc2ccc3[nH]ccc3c2)c(C(F)(F)F)c1 | 23 nM |  | 
12 | Cc1cc(OCC(=O)O)cc(C)c1Oc1ccc2[nH]cc(C(C)C)c2c1 |  |  | 24 nM
13 | CCOC(=O)C(=O)Nc1cc(C(F)(F)F)c(Oc2ccc3[nH]cc(-c4ccc(F)cc4)c3c2)c(C(F)(F)F)c1 | 115 nM |  | 
14 | CCOC(=O)C(=O)Nc1cc(C)c(Oc2ccc3[nH]cc(C(C)C)c3c2)c(Cl)c1 | 4 nM |  | 
15 | CCOC(=O)C(=O)Nc1cc(C(F)(F)F)c(Oc2ccc3[nH]cc(Oc4ccc(F)cc4)c3c2)c(C(F)(F)F)c1 | 495 nM |  | 
16 | CC(C)c1c[nH]c2ccc(Oc3c(C(F)(F)F)cc(/C=C/C(=O)O)cc3C(F)(F)F)cc12 | 3.2 nM |  | 
17 | CCOC(=O)C(=O)Nc1cc(C(F)(F)F)c(Oc2ccc3[nH]cc(Cc4ccc(F)cc4)c3c2)c(C(F)(F)F)c1 | 11 nM |  | 
18 | CCOC(=O)C(=O)Nc1cc(C)c(Cc2ccc3[nH]cc(C(C)C)c3c2)c(C)c1 | 18 nM |  | 
19 | CCOC(=O)CC(=O)Nc1cc(C)c(Oc2ccc3[nH]cc(C(C)C)c3c2)c(Cl)c1 | 8 nM | 10 | 
20 | CC(C)c1c[nH]c2ccc(Oc3c(C(F)(F)F)cc(CCC(=O)O)cc3C(F)(F)F)cc12 | 2.6 nM |  | 
